# Patent US11198713B2, “Agents modulating beta-catenin functions and methods thereof” (FOG PHARMACEUTICALS, INC., priority 2017, dated 2021)
# Numbered stars: 1 amine (or outer) side, 2 acyl side, 3 side chain; on linkers, the order of the positions; unused ones are H or OH. Bridge positions count the residues as written; N and C are the ends. Square brackets hold non-standard residues; d marks the D form. Peptide text beside a SMILES is read from it. X16 = C=CCOC(=O)N1CC[C@@](N[*:1])(C(=O)[*:2])C1; X14 = O=C([C@@]1(N[*:1])CCN(CC=[*:3])C1)[*:2]; R8 = C=CCCCCCC[C@@](C)(N)C(=O)O; S8 = C=CCCCCCC[C@](C)(N)C(=O)O
# Molecular target: T1, full-length beta-catenin (Axin site) (Homo sapiens, UniProt P35222)
# T1 construct: 15 nM full-length beta-catenin, 20 nM FITC labeled peptide in buffer
# T1 sequence (P35222 1-781): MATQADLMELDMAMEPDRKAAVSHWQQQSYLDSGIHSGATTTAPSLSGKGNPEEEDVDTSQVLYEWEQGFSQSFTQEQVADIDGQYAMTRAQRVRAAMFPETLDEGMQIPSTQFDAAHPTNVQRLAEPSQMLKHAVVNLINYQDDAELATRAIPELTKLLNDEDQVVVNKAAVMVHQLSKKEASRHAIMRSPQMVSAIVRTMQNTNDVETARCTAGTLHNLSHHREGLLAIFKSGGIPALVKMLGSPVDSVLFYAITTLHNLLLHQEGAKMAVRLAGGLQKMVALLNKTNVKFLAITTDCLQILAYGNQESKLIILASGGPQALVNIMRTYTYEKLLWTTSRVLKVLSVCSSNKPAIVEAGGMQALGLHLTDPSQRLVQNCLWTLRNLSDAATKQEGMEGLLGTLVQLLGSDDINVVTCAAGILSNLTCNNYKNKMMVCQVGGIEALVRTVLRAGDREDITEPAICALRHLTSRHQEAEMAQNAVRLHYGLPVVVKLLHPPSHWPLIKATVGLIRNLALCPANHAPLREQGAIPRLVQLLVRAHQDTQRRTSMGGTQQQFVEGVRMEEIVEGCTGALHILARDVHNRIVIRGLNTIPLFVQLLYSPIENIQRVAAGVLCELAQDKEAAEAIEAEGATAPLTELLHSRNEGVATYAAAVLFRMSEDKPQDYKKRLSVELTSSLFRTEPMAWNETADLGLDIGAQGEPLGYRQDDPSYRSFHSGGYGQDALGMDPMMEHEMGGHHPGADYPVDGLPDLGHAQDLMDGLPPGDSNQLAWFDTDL
# Experiment: Competition fluorescence polarization assay (Axin site probe)
# Format: binding
# Conditions: competition fluorescence polarization, Table 2; read-out: in vitro FP EC50
# Outline: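 Competition FP: 15 nM full-length β-catenin pre-incubated 5 min with 20 nM FITC-labelled stapled Axin-site peptide, then titrated peptide added (3-fold series from 5 μM) for 15 min in the dark. Buffer 50 mM Tris pH 8.0, 250 mM NaCl, 2% glycerol, 0.5 mM EDTA; duplicate reads.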
row,SMILES,EC50
1,"CC[C@H](C)[C@@H]1NC(=O)[C@@]2(NC(=O)[C@H](C)NC(=O)[C@@H]3CCCN3C(C)=O)CCN(C2)C(=O)OCC=CCCCCCC[C@@](C)(C(=O)N[C@@H](CCCNC(=N)N)C(=O)N[C@H](C(=O)N[C@@H](Cc2c[nH]c3ccccc23)C(N)=O)C(C)C)NC(=O)[C@H](C(C)C)NC(=O)[C@H](Cc2c[nH]cn2)NC(=O)[C@H](C)NC(=O)[C@H](CC(=O)O)NC(=O)[C@H](CC(C)C)NC1=O [FP0005c, Ac-P-A-MC-I-L-D-A-H-V-S8-R-V-W-NH2]",< 0.1 µM
2,"CC[C@H](C)[C@@H]1NC(=O)[C@@]2(NC(=O)[C@H](C)NC(=O)[C@@H]3CCCN3C(C)=O)CCN(CC=CCCCCCC[C@@](C)(C(=O)N[C@@H](CCCNC(=N)N)C(=O)N[C@H](C(=O)N[C@@H](Cc3c[nH]c4ccccc34)C(N)=O)C(C)C)NC(=O)[C@H](C(C)C)NC(=O)[C@H](Cc3c[nH]cn3)NC(=O)[C@H](C)NC(=O)[C@H](CC(=O)O)NC(=O)[C@H](CC(C)C)NC1=O)C2 [FP0006a, Ac-P-A-MC-I-L-D-A-H-V-S8-R-V-W-NH2] (Ac-PA[X14]ILDAHV[S8]RVW-NH2; staple 3-10)",< 0.1 µM
3,"C=CCCCCCC[C@@](C)(NC(=O)[C@H](C)NC(C)=O)C(=O)N[C@H](C(=O)N[C@@H](CC(C)C)C(=O)N[C@@H](CC(=O)O)C(=O)N[C@@H](C)C(=O)N[C@@H](Cc1c[nH]cn1)C(=O)N[C@H](C(=O)N[C@@]1(C(=O)N[C@@H](CCCNC(=N)N)C(=O)N[C@H](C(=O)N[C@@H](Cc2c[nH]c3ccccc23)C(N)=O)C(C)C)CCN(C(=O)OCC=C)C1)[C@@H](C)CC)[C@@H](C)CC [FP0217u, Ac-A-R8-I-L-D-A-H-I-MB-R-V-W-NH2] (Ac-A[R8]ILDAHI[X16]RVW-NH2)",< 0.1 µM

# Same assay, conditions: competition with FITC labeled Axin-site probe, 15 nM full-length beta-catenin; read-out: FP EC50
row,SMILES,EC50
1,"CC[C@H](C)[C@@H]1NC(=O)[C@@]2(NC(=O)[C@H](CCC(N)=O)NC(=O)[C@@H]3CCCN3C(C)=O)CCN(CC=CCCC[C@](C)(C(=O)N[C@@H](Cc3c[nH]cn3)C(=O)N[C@H](C(=O)N[C@@H](CCCNC(=N)N)C(=O)N[C@@H](CCCNC(=N)N)C(=O)N[C@H](C(=O)N[C@@H](Cc3c[nH]c4ccccc34)C(=O)N[C@@H](CCCNC(=N)N)C(N)=O)C(C)C)C(C)C)NC(=O)[C@H](CC(=O)O)NC(=O)[C@H](CC(C)C)NC1=O)C2 (single isomer, unassigned) [FP-0743, Ac-P-Q-PR-I-L-D-R5-H-V-R-R-V-W-R-NH2]",> 5 µM
2,"CC[C@H](C)[C@@H]1NC(=O)[C@@]2(NC(=O)[C@H](CCC(N)=O)NC(=O)[C@@H]3CCCN3C(C)=O)CCN(C2)C(=O)OCC=CCCCC[C@](C)(C(=O)N[C@@H](Cc2c[nH]cn2)C(=O)N[C@H](C(=O)N[C@@H](CCCNC(=N)N)C(=O)N[C@@H](CCCNC(=N)N)C(=O)N[C@H](C(=O)N[C@@H](Cc2c[nH]c3ccccc23)C(=O)N[C@@H](CCCNC(=N)N)C(N)=O)C(C)C)C(C)C)NC(=O)[C@H](CC(=O)O)NC(=O)[C@H](CC(C)C)NC1=O (single isomer, unassigned) [FP-0745c, Ac-P-Q-PR-I-L-D-R6-H-V-R-R-V-W-R-NN2]",0.11 µM
3,"CC[C@H](C)[C@@H]1NC(=O)[C@]2(NC(=O)[C@H](CCC(N)=O)NC(=O)[C@@H]3CCCN3C(C)=O)CCN(CC=CCCC[C@@](C)(C(=O)N[C@@H](Cc3c[nH]cn3)C(=O)N[C@H](C(=O)N[C@@H](CCCNC(=N)N)C(=O)N[C@@H](CCCNC(=N)N)C(=O)N[C@H](C(=O)N[C@@H](Cc3c[nH]c4ccccc34)C(=O)N[C@@H](CCCNC(=N)N)C(N)=O)C(C)C)C(C)C)NC(=O)[C@H](CC(=O)O)NC(=O)[C@H](CC(C)C)NC1=O)C2 (single isomer, unassigned) [FP-0751, Ac-P-Q-PS-I-L-D-S5-H-V-R-R-V-W-R-NH2]",> 5 µM
4,"CC[C@H](C)[C@@H]1NC(=O)[C@]2(NC(=O)[C@H](CCC(N)=O)NC(=O)[C@@H]3CCCN3C(C)=O)CCN(CC=CCCCCC[C@@](C)(C(=O)N[C@@H](Cc3c[nH]cn3)C(=O)N[C@H](C(=O)N[C@@H](CCCNC(=N)N)C(=O)N[C@@H](CCCNC(=N)N)C(=O)N[C@H](C(=O)N[C@@H](Cc3c[nH]c4ccccc34)C(=O)N[C@@H](CCCNC(=N)N)C(N)=O)C(C)C)C(C)C)NC(=O)[C@H](CC(=O)O)NC(=O)[C@H](CC(C)C)NC1=O)C2 (single isomer, unassigned) [FP-0753, Ac-P-Q-PS-I-L-D-S7-H-V-R-R-V-W-R-NH2]",> 5 µM
5,"CC[C@H](C)[C@@H]1NC(=O)[C@](C)(NC(=O)[C@H](CCC(N)=O)NC(=O)[C@@H]2CCCN2C(C)=O)CCCCC=CCOC(=O)N2CC[C@](C(=O)N[C@@H](Cc3c[nH]cn3)C(=O)N[C@H](C(=O)N[C@@H](CCCNC(=N)N)C(=O)N[C@@H](CCCNC(=N)N)C(=O)N[C@H](C(=O)N[C@@H](Cc3c[nH]c4ccccc34)C(=O)N[C@@H](CCCNC(=N)N)C(N)=O)C(C)C)C(C)C)(C2)NC(=O)[C@H](CC(=O)O)NC(=O)[C@H](CC(C)C)NC1=O (single isomer, unassigned) [FP-0767c, Ac-P-Q-R6-I-L-D-PR-H-V-R-R-V-W-R-NH2]",0.11 µM
6,"CC[C@H](C)[C@@H]1NC(=O)[C@](C)(NC(=O)[C@H](CCC(N)=O)NC(=O)[C@@H]2CCCN2C(C)=O)CCCCCC=CCN2CC[C@](C(=O)N[C@@H](Cc3c[nH]cn3)C(=O)N[C@H](C(=O)N[C@@H](CCCNC(=N)N)C(=O)N[C@@H](CCCNC(=N)N)C(=O)N[C@H](C(=O)N[C@@H](Cc3c[nH]c4ccccc34)C(=O)N[C@@H](CCCNC(=N)N)C(N)=O)C(C)C)C(C)C)(C2)NC(=O)[C@H](CC(=O)O)NC(=O)[C@H](CC(C)C)NC1=O (single isomer, unassigned) [FP-0768, Ac-P-Q-R7-I-L-D-PR-H-V-R-R-V-W-R-NH2]",> 5 µM

# Next, values leading:
row,EC50,SMILES
1,> 5 µM,"CC[C@H](C)[C@@H]1NC(=O)[C@](C)(NC(=O)[C@H](CCC(N)=O)NC(=O)[C@@H]2CCCN2C(C)=O)CCCC=CCN2CC[C@@](C(=O)N[C@@H](Cc3c[nH]cn3)C(=O)N[C@H](C(=O)N[C@@H](CCCNC(=N)N)C(=O)N[C@@H](CCCNC(=N)N)C(=O)N[C@H](C(=O)N[C@@H](Cc3c[nH]c4ccccc34)C(=O)N[C@@H](CCCNC(=N)N)C(N)=O)C(C)C)C(C)C)(C2)NC(=O)[C@H](CC(=O)O)NC(=O)[C@H](CC(C)C)NC1=O (single isomer, unassigned) [FP-0758, Ac-P-Q-R5-I-L-D-PS-H-V-R-R-V-W-R-NH2]"
2,0.58 µM,"CC[C@H](C)[C@@H]1NC(=O)[C@](C)(NC(=O)[C@H](CCC(N)=O)NC(=O)[C@@H]2CCCN2C(C)=O)CCCC=CCN(C)CC[C@](C)(C(=O)N[C@@H](Cc2c[nH]cn2)C(=O)N[C@H](C(=O)N[C@@H](CCCNC(=N)N)C(=O)N[C@@H](CCCNC(=N)N)C(=O)N[C@H](C(=O)N[C@@H](Cc2c[nH]c3ccccc23)C(=O)N[C@@H](CCCNC(=N)N)C(N)=O)C(C)C)C(C)C)NC(=O)[C@H](CC(=O)O)NC(=O)[C@H](CC(C)C)NC1=O (single isomer, unassigned) [FP-0776, Ac-P-Q-R5-I-L-D-RdN-H-V-R-R-V-W-R-NH2]"
3,1.3 µM,"CC[C@H](C)[C@@H]1NC(=O)[C@@](C)(NC(=O)[C@H](CCC(N)=O)NC(=O)[C@@H]2CCCN2C(C)=O)CCN(C)C(=O)OCC=CCCC[C@@](C)(C(=O)N[C@@H](Cc2c[nH]cn2)C(=O)N[C@H](C(=O)N[C@@H](CCCNC(=N)N)C(=O)N[C@@H](CCCNC(=N)N)C(=O)N[C@H](C(=O)N[C@@H](Cc2c[nH]c3ccccc23)C(=O)N[C@@H](CCCNC(=N)N)C(N)=O)C(C)C)C(C)C)NC(=O)[C@H](CC(=O)O)NC(=O)[C@H](CC(C)C)NC1=O (single isomer, unassigned) [FP-0779c, Ac-P-Q-SdN-I-L-D-S5-H-V-R-R-V-W-R-NH2]"
4,1.4 µM,"CC[C@H](C)[C@@H]1NC(=O)[C@](C)(NC(=O)[C@H](CCC(N)=O)NC(=O)[C@@H]2CCCN2C(C)=O)CCCN(C)CC=CCCC[C@](C)(C(=O)N[C@@H](Cc2c[nH]cn2)C(=O)N[C@H](C(=O)N[C@@H](CCCNC(=N)N)C(=O)N[C@@H](CCCNC(=N)N)C(=O)N[C@H](C(=O)N[C@@H](Cc2c[nH]c3ccccc23)C(=O)N[C@@H](CCCNC(=N)N)C(N)=O)C(C)C)C(C)C)NC(=O)[C@H](CC(=O)O)NC(=O)[C@H](CC(C)C)NC1=O (single isomer, unassigned) [FP-0783, Ac-P-Q-ReN-I-L-D-R5-H-V-R-R-V-W-R-NH2]"
5,~0.1 µM,"CC[C@H](C)[C@@H]1NC(=O)[C@@](C)(NC(=O)[C@H](CCC(N)=O)NC(=O)[C@@H]2CCCN2C(C)=O)CCCC=CCCC[C@@](C)(C(=O)N[C@@H](Cc2c[nH]cn2)C(=O)N[C@H](C(=O)N[C@@H](CCCNC(=N)N)C(=O)N[C@@H](CCCNC(=N)N)C(=O)N[C@H](C(=O)N[C@@H](Cc2c[nH]c3ccccc23)C(=O)N[C@@H](CCCNC(=N)N)C(N)=O)C(C)C)C(C)C)NC(=O)[C@H](CC(=O)O)NC(=O)[C@H](CC(C)C)NC1=O (single isomer, unassigned) [FP-0787]"
